This passage reports IC50 results from patent US11254668B2, “Pyrazolo[1,5-A]pyrazin-4-yl and related derivatives” (Pfizer Inc., priority 2017, dated 2022).

Format in all cases: biochemical
The target in one test is JAK3 (Homo sapiens (Human), UniProt P52333). Description: JAK Caliper Enzyme Assay at 1 mM ATP, JAK3. As for the experimental part:
(§1) Compounds of the invention were evaluated by in vitro methods to determine their respective ability to inhibit the JAK kinases (TYK2, JAK1, JAK2, JAK3).
(§2) The human JAK inhibitory activity was determined by using a microfluidic assay to monitor phosphorylation of a synthetic peptide by the recombinant human kinase domain of each of the four members of the JAK family, JAK1, JAK2, JAK3 and TYK2. […] Each assay condition was optimized for enzyme concentration and room temperature incubation time to obtain a conversion rate of 20% to 30% phosphorylated peptide product. Reactions were terminated by the addition of stop buffer containing EDTA. Utilizing the LabChip 3000 mobility shift technology (Caliper Life Science), each assay reaction was sampled to determine the level of phosphorylation. This technology is separation-based, allowing direct detection of fluorescently labeled substrates and products. Separations are controlled by a combination of vacuum pressure and electric field strength optimized for each peptide substrate.
(§3) JAK Caliper Enzyme Assay at 1mM ATP
(§4) Compounds were added to a 384-well plate.
(§5) The data was collected using the HTS Well Analyzer software from Caliper Life Sciences. The data output for data analysis is the percent product converted calculated on peak height (Equation 1). % product converted=100*((product)/(product+substrate)) Equation 1: […]
(§6) The percent effect at each compound concentration was calculated based on the positive and negative control well contained within each assay plate (Equation 2). […] The negative control wells contained DMSO alone (at the same concentration as the compound wells) that was used to set the baseline activity in the assay (i.e., uninhibited JAK1, JAK2, JAK3 or TYK2). % effect=100*([…](positive control-negative control)) Equation 2: […]
(§7) The percent effect was plotted against the compound concentration compound.

Another test concerns the target TYK2 (Homo sapiens (Human), UniProt P29597). Description: JAK Caliper Enzyme Assay at 1 mM ATP, TYK2. The protocol:
as §1, §2, §3, §4, §5, §6, §7

The target in a further test is JAK1 (Homo sapiens (Human), UniProt P23458). Description: JAK Caliper Enzyme Assay at 1 mM ATP, JAK1. The protocol: as §1, §2, §3, §4, §5, §6, §7
Sequence of JAK1 (P23458 875-1153): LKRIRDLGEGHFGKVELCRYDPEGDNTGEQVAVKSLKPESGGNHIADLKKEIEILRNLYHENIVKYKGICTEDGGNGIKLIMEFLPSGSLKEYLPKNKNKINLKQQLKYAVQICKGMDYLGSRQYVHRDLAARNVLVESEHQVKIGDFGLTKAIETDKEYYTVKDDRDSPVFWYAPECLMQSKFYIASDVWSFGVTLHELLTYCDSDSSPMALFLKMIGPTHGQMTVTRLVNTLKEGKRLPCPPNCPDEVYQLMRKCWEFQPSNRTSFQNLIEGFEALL

SMILES strings stand for the structures. Like-named read-outs stand apart in the source and are kept apart here. Some results are limits rather than exact numbers.

Broadly, the IC50 is the point on the concentration scale where inhibition reaches its midpoint.

Sequence of JAK3 (P52333 822-1111): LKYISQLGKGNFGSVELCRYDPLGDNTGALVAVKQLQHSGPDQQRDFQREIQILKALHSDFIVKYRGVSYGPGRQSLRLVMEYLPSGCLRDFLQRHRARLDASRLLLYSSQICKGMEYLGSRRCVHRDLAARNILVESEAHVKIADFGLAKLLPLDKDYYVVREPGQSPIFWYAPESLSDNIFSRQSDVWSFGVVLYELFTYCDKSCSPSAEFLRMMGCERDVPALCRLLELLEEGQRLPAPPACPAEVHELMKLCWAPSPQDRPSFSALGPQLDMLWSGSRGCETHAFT
Sequence of TYK2 (P29597 897-1176): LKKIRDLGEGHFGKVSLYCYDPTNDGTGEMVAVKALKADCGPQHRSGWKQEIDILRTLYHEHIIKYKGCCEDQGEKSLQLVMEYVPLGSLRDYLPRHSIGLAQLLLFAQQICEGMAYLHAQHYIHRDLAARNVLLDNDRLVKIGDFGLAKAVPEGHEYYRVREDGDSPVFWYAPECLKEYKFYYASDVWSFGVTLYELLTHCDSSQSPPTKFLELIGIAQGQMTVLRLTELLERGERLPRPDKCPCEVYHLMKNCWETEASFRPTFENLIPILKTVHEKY

With `N#CC[C@]1(n2cc(-c3nc(-c4cnn(CCO)c4)cc4ncccc34)cn2)C[C@@H](C#N)C1` [Example 6, cis-3-(cyanomethyl)-3-(4-{7-[1-(2-hydroxyethyl)-1H-pyrazol-4-yl]-1,6-naphthyridin-5-yl}-1H-pyrazol-1-yl)cyclobutanecarbonitrile], the IC50 on JAK3 stood at 1120 nM; at TYK2, 15 nM; at JAK1 it was 21 nM.
Turning to `N#CC[C@]1(n2cc(-c3nc(-c4cnn(CCO)c4)cc4ncccc34)cn2)C[C@H](C#N)C1` [Example 7, trans-3-(cyanomethyl)-3-(4-{7-[1-(2-hydroxyethyl)-1H-pyrazol-4-yl]-1,6-naphthyridin-5-yl}-1H-pyrazol-1-yl)cyclobutanecarbonitrile], the IC50 at JAK3 is above 10000 nM; on TYK2, 89 nM; at JAK1, 189 nM.
Taken in the same sequence, the figures for `N#CCC1(n2ccc(-c3nc(-c4ccn[nH]4)cc4ncccc34)n2)CN(S(=O)(=O)C2CC2)C1` [Example 18, [1-(cyclopropylsulfonyl)-3-{3-[7-(1H-pyrazol-5-yl)-1,6-naphthyridin-5-yl]-1H-pyrazol-1-yl}azetidin-3-yl]acetonitrile] were above 10000 nM, 20 nM and 451 nM.
As to `CC(=O)N(C)C1CC(CC#N)(n2ccc(-c3nc(-c4cc[nH]n4)cc4ncccc34)n2)C1` (stereo not drawn) [Example 33, N-[trans-3-(cyanomethyl)-3-{3-[7-(1H-pyrazol-3-yl)-1,6-naphthyridin-5-yl]-pyrazol-1-yl}cyclobutyl]-N-methylacetamide], the values for the IC50 at JAK3, at TYK2 and on JAK1 were above 10000 nM, 850 nM and 5700 nM, respectively.
For the compound `CC(=O)N(C)[C@H]1C[C@](CC#N)(n2ccc(-c3nc(-c4cc[nH]n4)cc4ncccc34)n2)C1` [Example 34, N-[cis-3-(cyanomethyl)-3-{3-[7-(1H-pyrazol-3-yl)-1,6-naphthyridin-5-yl]-pyrazol-1-yl}cyclobutyl]-N-methylacetamide], the IC50 is above 10000 nM on JAK3, 238 nM at TYK2 and 1700 nM at JAK1.
For `Cc1cc(-c2cc3ncccc3c(-c3ccn(C4(CC#N)CN(CC(F)(F)F)C4)n3)n2)n[nH]1` [Example 42, [3-{3-[7-(5-methyl-1H-pyrazol-3-yl)-1,6-naphthyridin-5-yl]-1H-pyrazol-1-yl}-1-(2,2,2-trifluoroethyl)azetidin-3-yl]acetonitrile], the concentration for half-maximal inhibition (IC50) at JAK3 is above 10000 nM; on TYK2 it was 36 nM; at JAK1, 1610 nM.
Taken in the same sequence, the figures for `Cn1nc(-c2cc3ncccc3c(-c3ccn([C@]4(CC#N)C[C@@H](C#N)C4)n3)n2)cc1CO` [Example 62, trans-3-(cyanomethyl)-3-(3-{7-[5-(hydroxymethyl)-1-methyl-1H-pyrazol-3-yl]-1,6-naphthyridin-5-yl}-1H-pyrazol-1-yl)cyclobutanecarbonitrile] were above 10000 nM, 153 nM and above 10000 nM.
For `Cn1nc(-c2cc3ncccc3c(-c3ccn([C@]4(CC#N)C[C@H](C#N)C4)n3)n2)cc1CO` [Example 63, cis-3-(cyanomethyl)-3-(3-{7-[5-(hydroxymethyl)-1-methyl-1H-pyrazol-3-yl]-1,6-naphthyridin-5-yl}-1H-pyrazol-1-yl)cyclobutanecarbonitrile] the same measures were 6550 nM, 17 nM and 672 nM.
Taken in the same sequence, the figures for `Cn1nc(-c2cc3ncccc3c(-c3ccn([C@]4(CC#N)C[C@@H](C#N)C4)n3)n2)cc1N` [Example 65, trans-3-{3-[7-(5-amino-1-methyl-1H-pyrazol-3-yl)-1,6-naphthyridin-5-yl]-1H-pyrazol-1-yl}-3-(cyanomethyl)cyclobutanecarbonitrile] were above 10000 nM, 18 nM and 1590 nM.
Take `Cn1nc(-c2cc3ncccc3c(-c3ccn([C@]4(CC#N)C[C@H](C#N)C4)n3)n2)cc1N` [Example 66, cis-3-{3-[7-(5-amino-1-methyl-1H-pyrazol-3-yl)-1,6-naphthyridin-5-yl]-1H-pyrazol-1-yl}-3-(cyanomethyl)cyclobutanecarbonitrile]: the IC50 stood at 2500 nM on JAK3, 7 nM on TYK2 and 155 nM at JAK1.
`Cn1nccc1C1CC(CC#N)(n2ccc(-c3nc(-c4cn[nH]c4)cc4ncccc34)n2)C1` (stereo not drawn) [Example 86, [cis-3-(1-methyl-1H-pyrazol-5-yl)-1-{3-[7-(1H-pyrazol-4-yl)-1,6-naphthyridin-5-yl]-1H-pyrazol-1-yl}cyclobutyl]acetonitrile]: the half-maximal inhibitory concentration (IC50) on JAK3 is above 10000 nM; at TYK2, 430 nM; at JAK1 it was 2410 nM.
Take `Cn1cc(-c2cc3ncccc3c(-c3ccn(C4(CC#N)CN(CC5CC5)C4)n3)n2)cn1` [Example 101, [1-(cyclopropylmethyl)-3-{3-[7-(1-methyl-1H-pyrazol-4-yl)-1,6-naphthyridin-5-yl]-1H-pyrazol-1-yl}azetidin-3-yl]acetonitrile]: the half-inhibitory concentration (IC50) is above 10000 nM on JAK3, 73 nM on TYK2 and 2040 nM on JAK1.
With `CCn1cc(-c2cc3ncccc3c(-c3ccn(C4(CC#N)CC(C#N)C4)n3)n2)cn1` (stereo not drawn) [Example 112, cis-3-(cyanomethyl)-3-{3-[7-(1-ethyl-1H-pyrazol-4-yl)-1,6-naphthyridin-5-yl]-1H-pyrazol-1-yl}cyclobutanecarbonitrile], the 50% inhibitory concentration (IC50) on JAK3 is 634 nM; on TYK2 it was 12 nM; on JAK1, 43 nM.
Regarding `CCn1cc(-c2cc3ncccc3c(-c3ccn([C@]4(CC#N)C[C@@H](C#N)C4)n3)n2)cn1` [Example 113, trans-3-(cyanomethyl)-3-{3-[7-(1-ethyl-1H-pyrazol-4-yl)-1,6-naphthyridin-5-yl]-1H-pyrazol-1-yl}cyclobutanecarbonitrile], the results for the IC50 on JAK3, at TYK2 and on JAK1 were 8970 nM, 22 nM and 409 nM, respectively.
`C=C(CO)n1cc(-c2cc3ncccc3c(-c3ccn(C4(CC#N)CN(S(C)(=O)=O)C4)n3)n2)cn1` [Example 131, [3-(3-{7-[1-(3-hydroxyprop-1-en-2-yl)-1H-pyrazol-4-yl]-1,6-naphthyridin-5-yl}-1H-pyrazol-1-yl)-1-(methylsulfonyl)azetidin-3-yl]acetonitrile]: the IC50 at JAK3 was above 10000 nM; on TYK2, 251 nM; at JAK1 it was 1630 nM.
Taken in the same sequence, the figures for `CS(=O)(=O)N1CC(CC#N)(n2ccc(-c3nc(-c4cnn(CC5(O)COC5)c4)cc4ncccc34)n2)C1` [Example 133, {3-[3-(7-{1-[(3-hydroxyoxetan-3-yl)methyl]-1H-pyrazol-4-yl}-1,6-naphthyridin-5-yl)-1H-pyrazol-1-yl]-1-(methylsulfonyl)azetidin-3-yl}acetonitrile] were above 10000 nM, 76 nM and 1670 nM.
In the case of `N#CCC1(n2ccc(-c3nc(-c4ncc[nH]4)cc4ncccc34)n2)CN(CC(F)(F)F)C1` [Example 148, [3-{3-[7-(1H-imidazol-2-yl)-1,6-naphthyridin-5-yl]-1H-pyrazol-1-yl}-1-(2,2,2-trifluoroethyl)azetidin-3-yl]acetonitrile], the concentration for half-maximal inhibition (IC50) at JAK3 is above 10000 nM; on TYK2 it was 235 nM; on JAK1 it was 8800 nM.
As for `Cn1cnc(-c2cc3ncccc3c(-c3ccn(C4(CC#N)CN(CC(F)(F)F)C4)n3)n2)c1` [Example 149, [3-{3-[7-(1-methyl-1H-imidazol-4-yl)-1,6-naphthyridin-5-yl]-1H-pyrazol-1-yl}-1-(2,2,2-trifluoroethyl)azetidin-3-yl]acetonitrile], the concentration for half-maximal inhibition (IC50) is above 10000 nM at JAK3, 125 nM at TYK2 and above 10000 nM on JAK1.
As to `N#CCC1(n2ccc(-c3nc(-c4cnn(C5CCCCO5)n4)cc4ncccc34)n2)CN(CC(F)(F)F)C1` (stereo not shown) [Example 155, [3-(3-{7-[2-(tetrahydro-2H-pyran-2-yl)-2H-1,2,3-triazol-4-yl]-1,6-naphthyridin-5-yl}-1H-pyrazol-1-yl)-1-(2,2,2-trifluoroethyl)azetidin-3-yl]acetonitrile], the values for the half-inhibitory concentration (IC50) at JAK3, on TYK2 and at JAK1 were above 10000 nM, 312 nM and 6460 nM, respectively.
As for `N#CCC1(n2ncc(-c3cc(-c4cccc(C(N)=O)c4)cc4ncccc34)n2)CC(C#N)C1` (stereo not drawn) [Example 431, 3-(5-{2-[cis-3-cyano-1-(cyanomethyl)cyclobutyl]-2H-1,2,3-triazol-4-yl}quinolin-7-yl)benzamide], the IC50 on JAK3 (JAK Caliper enzyme assay) was above 10000 nM; at JAK1 (JAK Caliper enzyme assay), 572 nM.
As to `N#CC[C@]1(n2ncc(-c3cc(-c4cccc(C(N)=O)c4)cc4ncccc34)n2)C[C@@H](C#N)C1` [Example 432, 3-(5-{2-[trans-3-cyano-1-(cyanomethyl)cyclobutyl]-2H-1,2,3-triazol-4-yl}quinolin-7-yl)benzamide], the figures for the IC50 on JAK3 (JAK Caliper enzyme assay) and on JAK1 (JAK Caliper enzyme assay) were above 10000 nM and 3900 nM, respectively.
